Experiments:
platelets = assay: effect of antiplatelet compounds on DOX-induced platelet aggregation; format: cell-based; details: reagent at recommended concentration
HepG2 cells = assay: receptor mediated binding between CPP or FPH and HepG2 cells with inhibitors / blocking mabs; format: cell-based, human; details: inhibitor / blocking mab tested, Table 7
Protocol: Receptor mediated binding between CPP or FPH with HepG2 cells was investigated by inhibiting either a platelet receptor or a HepG2 receptor. Pooled apheresis platelets were incubated with 50 μM CFDA-Se for 60 minutes at room temperature then acidified to pH of 6.6-6.8 with citric acid. CPP and FPH were then created as disclosed in Example 1 but without doxorubicin. Untreated HepG2 cells served as negative control groups. HepG2 cells were seeded at a density of 10^5 cells in a 12-well plate (NuncTM Cell-Culture Treated Multidishes, catalog no: 150628) After incubation for 24 hours, the original medium was […] hours with fresh 0.5% FBS DMEM (ATCC-formulated Eagle's Minimum Essential Medium, catalog No. 30-2003). To determine the effect of platelet receptor inhibition on the binding between CPP/FPH and HepG2 cells first both CPP and FPH were incubated with tirofiban to block the GpIIb/IIIa receptor. Then the HepG2 cells were supplemented with tirofiban treated CPP, tirofiban treated FPH, untreated CPP, or untreated FPH at an equivalent platelet count of 0.3×10^6 platelets/μl. The cells were then washed with cold PBS three times, harvested by a scraper, and then suspended in PBS. The fluorescence intensity was determined by flow cytometry with the FITC channel. Approximately 10,0000 events for each sample was measured to assess the surface binding between the HepG2 cells and tirofiban treated CPP or FPH. To determine the effect of HepG2 receptor inhibition on the binding between CPP/FPH and HepG2 cells, first HepG2 cells were treated with either anti-podoplanin blocking monoclonal antibody or phagocytosis (wortmannin) inhibitor for 30 minutes. Then the HepG2 cells were incubated with either CPP or FPH. The HepG2 cells were washed with cold PBS three times, harvested by a scraper, and then suspended in PBS. The fluorescence intensity was determined by flow cytometry with the FITC channel. Approximately 10,0000 events for each sample was measured to assess the surface binding between the HepG2 cells CPP or FPH. […]

GPIIb/IIIa = GPIIb/IIIa (Homo sapiens, UniProt P05106+P08514); details: printed as recommended concentration; source PMID: 9700979; cited from earlier work
GPIIb/IIIa, sequence (P08514 32-887 limits assumed): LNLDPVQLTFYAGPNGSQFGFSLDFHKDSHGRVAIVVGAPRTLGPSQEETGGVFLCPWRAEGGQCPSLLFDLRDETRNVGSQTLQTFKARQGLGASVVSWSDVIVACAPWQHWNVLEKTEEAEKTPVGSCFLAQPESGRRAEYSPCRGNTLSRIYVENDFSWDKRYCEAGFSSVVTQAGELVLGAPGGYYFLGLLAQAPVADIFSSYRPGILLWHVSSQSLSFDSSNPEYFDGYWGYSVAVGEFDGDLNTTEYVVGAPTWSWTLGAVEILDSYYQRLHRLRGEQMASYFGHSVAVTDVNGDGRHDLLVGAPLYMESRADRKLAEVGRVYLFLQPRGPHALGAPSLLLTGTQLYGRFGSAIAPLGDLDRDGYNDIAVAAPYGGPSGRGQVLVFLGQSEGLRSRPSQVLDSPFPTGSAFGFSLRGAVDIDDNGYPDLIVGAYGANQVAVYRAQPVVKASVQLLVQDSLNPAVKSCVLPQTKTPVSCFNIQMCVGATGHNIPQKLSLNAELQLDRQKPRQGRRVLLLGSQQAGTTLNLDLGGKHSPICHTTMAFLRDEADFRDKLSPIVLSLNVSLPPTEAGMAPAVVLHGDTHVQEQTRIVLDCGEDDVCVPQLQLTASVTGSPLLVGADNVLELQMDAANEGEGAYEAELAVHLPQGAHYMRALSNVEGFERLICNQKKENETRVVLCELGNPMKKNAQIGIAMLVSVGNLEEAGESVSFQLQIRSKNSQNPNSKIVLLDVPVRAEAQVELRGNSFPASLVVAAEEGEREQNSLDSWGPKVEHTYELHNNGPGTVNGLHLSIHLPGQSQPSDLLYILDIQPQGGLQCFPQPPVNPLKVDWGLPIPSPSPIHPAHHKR
GPIIb/IIIa, sequence (P08514 891-1039 partner limits assumed): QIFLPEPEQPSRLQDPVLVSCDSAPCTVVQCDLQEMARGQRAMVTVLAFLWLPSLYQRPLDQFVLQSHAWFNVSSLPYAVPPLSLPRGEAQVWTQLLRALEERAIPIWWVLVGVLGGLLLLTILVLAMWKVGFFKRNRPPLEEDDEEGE
GPIIb/IIIa, sequence (P05106 27-788): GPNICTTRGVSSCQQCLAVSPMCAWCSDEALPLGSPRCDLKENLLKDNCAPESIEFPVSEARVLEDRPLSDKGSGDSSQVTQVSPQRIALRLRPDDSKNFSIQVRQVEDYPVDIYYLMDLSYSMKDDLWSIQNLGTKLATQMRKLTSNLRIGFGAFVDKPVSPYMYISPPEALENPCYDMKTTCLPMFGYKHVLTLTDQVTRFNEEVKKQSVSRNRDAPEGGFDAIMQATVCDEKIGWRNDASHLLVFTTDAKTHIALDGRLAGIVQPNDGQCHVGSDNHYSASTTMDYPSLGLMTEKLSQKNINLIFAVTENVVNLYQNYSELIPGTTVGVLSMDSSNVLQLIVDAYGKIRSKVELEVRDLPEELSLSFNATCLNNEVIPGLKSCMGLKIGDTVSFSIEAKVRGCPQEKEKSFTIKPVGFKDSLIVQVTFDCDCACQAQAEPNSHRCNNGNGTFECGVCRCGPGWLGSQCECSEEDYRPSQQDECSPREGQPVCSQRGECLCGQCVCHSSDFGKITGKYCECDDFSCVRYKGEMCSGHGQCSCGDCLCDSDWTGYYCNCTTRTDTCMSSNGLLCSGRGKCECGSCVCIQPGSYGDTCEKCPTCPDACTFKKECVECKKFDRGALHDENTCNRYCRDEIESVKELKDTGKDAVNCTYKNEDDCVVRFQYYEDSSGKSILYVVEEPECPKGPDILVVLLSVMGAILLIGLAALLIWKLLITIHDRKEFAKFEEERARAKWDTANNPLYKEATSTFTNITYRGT

SMILES | Max Platelet Count (Normalized to Untreated) (platelets; 0.5 mg/mL DOX) | Max Platelet Count (Normalized to Untreated) (platelets; 1 mg/mL DOX) | also measured
CC(=O)Oc1ccccc1C(=O)O [Aspirin (ASA), Aspirin] | 52% | 15% | –
CSCCNc1nc(SCCC(F)(F)F)nc2c1ncn2[C@@H]1O[C@H](COP(=O)(O)OP(=O)(O)C(Cl)(Cl)P(=O)(O)O)[C@@H](O)[C@H]1O [Cangrelor] | 47% | 26% | –
CN(C)CCCN1c2ccccc2Sc2ccc(Cl)cc21 [Chlorpromazine] | – | – | change of CPP/FPH binding to HepG2 cells in comparison to control (HepG2 cells): No Significance
COC(=O)/C=C1/SC(=NC(=O)c2ccc(Cl)cc2Cl)N(c2ccc(Cl)cc2)C1=O [FR171113] | 51% | 16% | –
Cl.Cl.Cl.N=C(N)c1ccc(N2CCN(C3CCN(CC(=O)O)CC3)CC2)cc1 [GR144053] | 83% | 42% | IC50 (GPIIb/IIIa): 37 nM
O=c1c(-c2ccc(O)cc2)coc2cc(O)cc(O)c12 [Genistein] | – | – | change of CPP/FPH binding to HepG2 cells in comparison to control (HepG2 cells): No Significance
CSc1nc(N)c2ncn([C@@H]3O[C@H](COP(=O)(O)OP(=O)(O)O)[C@@H](O)[C@H]3O)c2n1 [MeSADP] | 33% | 10% | –
CC1(C)CC(NC(=O)C[P+](c2ccccc2)(c2ccccc2)c2ccccc2)CC(C)(C)N1[O] [MitoTEMPO] | – | – | Max Platelet Count (Normalized to Untreated) (platelets; 1.2 mM DOX): 37%
CC(=O)N[C@@H](CS)C(=O)O [N-Acetylcysteine] | – | – | Max Platelet Count (Normalized to Untreated) (platelets; 0.6 mM DOX): 73%
Nc1c(S(=O)(=O)O)cc(Nc2ccc(Nc3ccccc3)c(S(=O)(=O)O)c2)c2c1C(=O)c1ccccc1C2=O [PSB 0739] | 26% | 18% | –
CCCCS(=O)(=O)N[C@@H](Cc1ccc(OCCCCC2CCNCC2)cc1)C(=O)O [Tirofiban] | – | – | Max Platelet Count (Normalized to Untreated) (platelets; 0.6 mM DOX): 73%; change of CPP/FPH binding to HepG2 cells in comparison to control (HepG2 cells): Significance
